# Laboratory results from US10563272B2, “Compositions comprising Metarhizium fungi and use thereof as a pesticide” (Cotton Research and Development Corporation, priority 2015, dated 2020).
# How the values were obtained:
# [1] = tested on: Creontiades dilutus (green mirids); assay: Foliar spray trial on Bollgard II cotton, Norwood 2010-11 (Example 7): green mirids; assay type: in vivo; conditions: first spray, three DAT; BC 667/DAT 511 500 mL/ha, fipronil 62.5 mL/ha
# Protocol: (§1) The trial was conducted on commercial Bollgard II® cotton crops at Norwood near Moree, NSW from 5 Dec. 2010 to 19 Feb. 2011. The cotton was at the early squaring stage, when it was attractive to green mirids (Khan et al. 2004).
# (§2) The study evaluated the efficacy of the following treatments against green mirids, green vegetable bugs and predatory insects: • 1. 500 mL/ha BC 667 spore in oil (1×10^7 spores/ml); • 2. 500 mL/ha DAT 511 spore in oil (1×10^7 spores/ml); • 3. 62.5 mL/ha Fipronil (conventional insecticide); and • 4. Unsprayed (control).
# The treatment plots were arranged in a randomized complete block design with four replicates per treatment. Each replicated plot measured 0.5 ha. Foliar application of each treatment was made on 18 Jan. 2011 using a ground spray rig fitted with flat fan nozzles to achieve a droplet size of 80 250 μm. The treatment was applied in the mornings when temperature was between 20° C. and 28° C. […]
# Pre-treatment counts of green mirid adults and nymphs, predatory beetles, predatory bugs, predatory lacewings and spiders were made by visual inspection of whole cotton plants. Both adults and nymphs of the beneficial insects were counted. Plants were assessed in randomly selected one-metre lengths of row of each treatment replicate (i.e. four metres per treatment). […] Data are expressed as numbers of individuals of that species counted per metre for each treatment.
# predatory bugs [2] = assay: Rate trial on conventional cotton refuge crops, Undabri 2012 (Example 12): predatory bugs; assay type: in vivo, Hemiptera (Nabidae, Lygaeidae, Pentatomidae); conditions: DAT 511 500 mL and 1.0 L/ha (P<0.001 versus 250 mL/ha and unsprayed); fipronil 62.5 mL/ha
# Protocol: This trial was conducted using commercial conventional cotton refuge crops at Undabri in Goondiwindi (28° 55'S, 150° 31′E) from 14 Feb. to 6 Mar. 2012.
# (§3) The efficacy of the following treatments against green mirids, green vegetable bugs and predatory insects was assessed: • 1. 250 mL/ha DAT 511 spore in oil (1×10^7 spores/ml); • 2. 500 mL/ha DAT 511 spore in oil (1×10^7 spores/ml); • 3. 1 L/ha DAT 511 spore in oil (1×10^7 spores/ml); • 4. 62.5 mL/ha fipronil; and • 5. Unsprayed (negative control).
# The plots were arranged in a randomized complete block design with three replicates per treatment. Each replicated plot measured 8 m (8 rows) wide and 250 m long.
# Foliar applications of each treatment were made on 14 Feb. 2012 using a ground spray rig fitted with flat fan nozzles to achieve a droplet size of 200 μm. All insecticide formulations were water miscible. All treatments were applied using a spray volume of 100 L/ha. The untreated (negative control) plot was left unsprayed and the plot treated with synthetic insecticide received two applications similar to, and on the same date as, the plots treated with the fungus.
# For each replicate, visual counts of adults and nymphs of green mirids, green vegetable bugs (GVB), apple dimpling bugs and predatory insects on whole cotton plants were made in a randomly selected 1 m length of row of cotton plants (i.e. 6 m per treatment). […]
# predatory bugs [3] = assay: Rate trial on conventional cotton, Norwood 2012 (Example 10): predatory bugs; assay type: in vivo, Hemiptera (Nabidae, Lygaeidae, Pentatomidae); conditions: P>0.05
# Protocol: This trial was conducted on commercial conventional cotton crops on a farm at Norwood (29° 28'S, 149° 50′E) near Moree, NSW, from 28 Feb. to 21 Mar. 2012. The cotton used for the trial was at the early squaring stage, when it was attractive to green mirids (Khan et al. 2004).
# as §3, with “mirids” for “mirids, green vegetable bugs”, “were evaluated:” for “was assessed:”, “of Fipronil;” for “fipronil;”
# The treatment plots were arranged in a randomized complete block design with six replicates per treatment. Each replicated plot measured 40 m wide (40 rows) and 90 m long.
# Foliar application of each treatment was made on 28 Feb. (for both green mirids and beneficial insects) and 13 Mar. […]
# Pre-treatment counts of adult and nymph green mirids, predatory beetles, predatory bugs, predatory lacewings and spiders were made by visual inspection of whole cotton plants. Both adults and nymphs of beneficial insects were counted. Plants were assessed in randomly selected one-metre lengths of row of each treatment replicate (i.e. 6 m per treatment). […] Data are expressed as numbers of green mirid adults and nymphs counted per metre per treatment.
# lacewings = assay: Foliar spray trial on Bollgard II cotton, Norwood 2010-11 (Example 7): lacewings; assay type: in vivo, Chrysopa spp., Micromus tasmaniae; conditions: fipronil 62.5 mL/ha; for number of lacewings per meter: 1st spray, BC 667/DAT 511 0.50 L/ha; for number of lacewings per metre: 2nd spray, BC 667/DAT 511 0.5 L/ha
# Protocol: as §1, §2
# (§4) The treatment plots were arranged in a randomized complete block design with four replicates per treatment. Each replicated plot measured 0.5 ha. Foliar application of each treatment was made on 18 Jan. 2011 using a ground spray rig fitted with flat fan nozzles to achieve a droplet size of 80 250 μm. The treatment was applied in the mornings when temperature was between 20° C. and 28° C. The timing of treatment was based on an economic threshold of 0.5 green mirids per metre, the IPM guideline and recommendation by CottonLogic.
# Pre-treatment counts of green mirid adults and nymphs, predatory beetles, predatory bugs, predatory lacewings and spiders were made by visual inspection of whole cotton plants. Both adults and nymphs of the beneficial insects were counted. Plants were assessed in randomly selected one-metre lengths of row of each treatment replicate (i.e. four metres per treatment). In all, two spray applications of each treatment were made. The first spray was made on 18 Jan. 2011. Post-treatment counts of the first spray application were taken 3, 7 and 14 days after treatment (DAT) (first spray). A second spray application was done on 1 Feb. 2011 when green mirid adults plus nymphs reached the threshold of 0.5 per metre. Post-treatment counts of the second spray application were taken 3, 7, 14, 21 and 28 DAT. Data are expressed as numbers of individuals of that species counted per metre for each treatment.
# [4] = Foliar spray trial on Bollgard II cotton, Norwood 2010-11 (Example 7): yield; assay type: in vivo; conditions: BC 667/DAT 511 0.50 L/ha, fipronil 62.5 mL/ha
# Protocol: as §2, §4
# Cotton in each treated plot was harvested separately using a four-row picker (John Deere, Model 9965, USA) at the end of the season and the average lint yields (bales/acre) were compared between treatments.
structure (smiles),measurement,setting,value
N#Cc1nn(-c2c(Cl)cc(C(F)(F)F)cc2Cl)c(N)c1[S+]([O-])C(F)(F)F (centres unmarked) [fipronil],green mirid mortality,[1],100%
same,effect on number of predatory bugs per metre,predatory bugs [2],significantly lower
same,number of predatory bugs versus unsprayed (control) plots,predatory bugs [3],No significant difference
same,number of lacewings per meter,lacewings; 3 DAT,0.00 ± 0.00 a per meter
same,number of lacewings per meter,lacewings; 7 DAT,0.00 ± 0.00 a per meter
same,number of lacewings per meter,lacewings; 14 DAT,0.33 ± 0.33 a per meter
same,number of lacewings per meter,lacewings; pre-spray counts 18 Jan. 2011,0.67 ± 0.33 a per meter
same,number of lacewings per metre,lacewings; 3 DAT,0.33 ± 0.33a per metre
same,number of lacewings per metre,lacewings; 7 DAT,0.67 ± 0.33a per metre
same,number of lacewings per metre,lacewings; 14 DAT,0.67 ± 0.33a per metre
same,number of lacewings per metre,lacewings; 21 DAT,1.67 ± 0.33a per metre
same,number of lacewings per metre,lacewings; 28 DAT,1.33 ± 0.33a per metre
same,number of lacewings per metre,lacewings; pre-spray counts 1 Feb. 2011,0.33 ± 0.33a per metre
same,Yields (bales/acre),[4],4.67 ± 0.63 a bales/acre
